{"source": "patent US12138256B2", "about": "“Treatment of cardiopulmonary disorders” (Bayer Aktiengesellschaft, priority 2021, dated 2024)", "key": {"[1]": {"test_system": "guinea pig trachea pre-contracted with carbachol", "experiment": "Bronchorelaxation in vitro: carbachol pre-contracted guinea pig trachea rings, wash-out recovery factor (C-3.1)", "protocol": "Male Dunkin Hartley guinea pig were euthanized using carbon dioxide. The primary bronchus was removed and placed in ice-cold Krebs-Henseleit buffer of following composition (in mmol/l): […] For recording of isometric tension, the bronchial rings were mounted between two hooks. One hook was connected to a force transducer the other was moveable and allowed a precise adjustment of resting tension at 1.5 g. During the equilibration period of 60 min the tissue was washed every 20 min with buffer. […] After 30 min, a cumulative dose response curve of the test compound was constructed. Every concentration was incubated till the response was stable. […] The relaxation was expressed as percentage tension. […] The recovery factor was calculated as a ratio of bronchodilation 1 h after compound application and bronchodilation 1 h after removal (wash out) of test compound. […] Relaxation via Cinaciguat (comparative example 1) and Riociguat (comparative example 2) reached a steady state within the 1 h incubation time. […] In contrast, relaxation induced by comparative example 11 was further progressing during the wash out period (recovery factor 1.41)."}, "[2]": {"experiment": "Storage stability of pseudopolymorphic forms (XRPD after storage)", "format": "physicochemical", "details": "monohydrate II as starting material; one, three and six months; container, temperature, relative humidity per example"}, "[3]": {"test_system": "thromboxane analog U46619 induced PAH in minipigs", "experiment": "Haemodynamics (PAP, BP) in the anesthetized thromboxane challenged PAH minipig after inhaled (nebulized) application (C-2.1)", "format": "in vivo, Göttingen minipig", "details": "inhaled; for BP % change vs. baseline / PAP % change vs. baseline: 100 μg/kg nominal dose, individual animals", "outline": "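Anesthetized, ventilated Göttingen minipigs (2-6 kg) given continuous infusion (0.3-0.75 μg/kg/min) to raise mean PAP above 25 mmHg, dosing starting after a 30 min plateau. Compound in 1% DMSO/0.2% citric acid, pH 8, nebulized via Aeroneb Pro into the inspiratory arm (~7 min; stock 300 μg/kg). PAP by Swan-Ganz catheter, BP via carotid catheter.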"}, "[4]": {"experiment": "Thermal stability of the solid (90° C., 7 days, HPLC peak areas)", "format": "physicochemical", "protocol": "0.3 mg of the test compound, e.g. comparative example 11 were solved in 0.1 ml dimethylsulfoxide and 0.4 ml acetonitrile. Then 1.0 ml water was added. For complete dissolution the HPLC vial was shaken and sonicated. This solution was immediately analyzed by HPLC (reference at t0). 0.3 mg of the test compound was weighed into another HPLC vial. The vial was capped and stored for 7 days in a heating block at 90° C.\nAfter this time the vial was decapped and 0.1 ml dimethylsulfoxide and 0.4 ml acetonitrile were added to the stressed compound. Then 1.0 ml water was added. For complete dissolution the HPLC vial was shaken and sonicated. The sample was analyzed by HPLC (sample after 1 week). The peak areas in percentage are used for quantification."}}, "note": "Several values for one entry are separate records, joined by “and”; a condition that tells them apart may be missing. Identical values can stand only once.", "data": [{"compound": "COC(=O)N(C)c1c(N)nc(-c2nn(Cc3ccccc3F)c3ncccc23)nc1N", "note": "[comparative example 2, Riociguat]", "values": [{"measurement": "Relaxation (%) (timepoint at 70 min) Mean", "setting": "[1]; 1 μmol/l", "value": 29.1, "unit": "%"}, {"measurement": "Relaxation (%) (timepoint at 130 min) Mean", "setting": "[1]; 1 μmol/l", "value": 85.1, "unit": "%"}]}, {"compound": "O.O=C(O)c1ccc(CCN(CCc2ccccc2OCc2ccc(-c3ccc(C(F)(F)F)cc3)cc2Cl)[C@H]2CCCc3nc(C(=O)O)ccc32)cc1", "note": "[7d]", "values": [{"measurement": "Result (form after storage)", "setting": "[2]", "value": "monohydrate I"}]}, {"compound": "Ethyl 5-{[2-(2-{[3-chloro-4′-(trifluoromethyl)biphenyl-4-yl]methoxy}phenyl)ethyl]amino}-5,6,7,8-tetrahydroquinoline-2-carboxylate dihydrochloride [7a]", "values": [{"measurement": "Result (form after storage)", "setting": "[2]", "value": "monohydrate II"}]}, {"compound": "Cc1ccc2oc(-c3ccc(COc4ccccc4CCN(CCCCC(=O)O)C4CCCc5nc(C(=O)O)ccc54)cc3)nc2c1", "note": "(single isomer, unassigned; (+)) [comparative example 5, (+)-5-{(4-Carboxybutyl)[2-(2-{[4-(5-methyl-1,3-benzoxazol-2-yl)benzyl]oxy}phenyl)ethyl]amino}-5,6,7,8-tetrahydroquinoline-2-carboxylic acid]", "values": [{"measurement": "BP % change vs. baseline", "setting": "[3]; time 80 min", "value": 100.0, "unit": "%"}, {"measurement": "PAP % change vs. baseline", "setting": "[3]; time 80 min", "value": 100.0, "unit": "%"}, {"measurement": "BP % change vs. baseline", "setting": "[3]; time 90 min", "value": 100.0, "unit": "%"}, {"measurement": "PAP % change vs. baseline", "setting": "[3]; time 90 min", "value": "101.5% and 99.2% and 102.0%"}, {"measurement": "BP % change vs. baseline", "setting": "[3]; time 100 min", "value": "99.1% and 97.7% and 101.8%"}, {"measurement": "PAP % change vs. baseline", "setting": "[3]; time 100 min", "value": "98.0% and 90.0% and 93.8%"}, {"measurement": "BP % change vs. baseline", "setting": "[3]; time 110 min", "value": "99.1% and 97.7% and 100.0%"}, {"measurement": "PAP % change vs. baseline", "setting": "[3]; time 110 min", "value": "91.7% and 86.4% and 79.0%"}, {"measurement": "BP % change vs. baseline", "setting": "[3]; time 120 min", "value": "99.1% and 96.6% and 97.3%"}, {"measurement": "PAP % change vs. baseline", "setting": "[3]; time 120 min", "value": "90.0% and 86.1% and 73.7%"}, {"measurement": "BP % change vs. baseline", "setting": "[3]; time 130 min", "value": "98.1% and 97.7% and 97.3%"}, {"measurement": "PAP % change vs. baseline", "setting": "[3]; time 130 min", "value": "87.6% and 88.6% and 72.9%"}, {"measurement": "BP % change vs. baseline", "setting": "[3]; time 140 min", "value": "98.1% and 98.9% and 97.3%"}, {"measurement": "PAP % change vs. baseline", "setting": "[3]; time 140 min", "value": "87.1% and 93.0% and 73.7%"}, {"measurement": "BP % change vs. baseline", "setting": "[3]; time 150 min", "value": "95.3% and 100.0% and 97.3%"}, {"measurement": "PAP % change vs. baseline", "setting": "[3]; time 150 min", "value": "87.6% and 95.0% and 75.1%"}, {"measurement": "BP % change vs. baseline", "setting": "[3]; time 160 min", "value": "96.2% and 101.1% and 98.2%"}, {"measurement": "PAP % change vs. baseline", "setting": "[3]; time 160 min", "value": "88.7% and 96.4% and 77.8%"}, {"measurement": "BP % change vs. baseline", "setting": "[3]; time 170 min", "value": "95.3% and 101.1% and 96.4%"}, {"measurement": "PAP % change vs. baseline", "setting": "[3]; time 170 min", "value": "89.8% and 97.8% and 79.2%"}, {"measurement": "BP % change vs. baseline", "setting": "[3]; time 180 min", "value": "95.3% and 101.1% and 97.3%"}, {"measurement": "PAP % change vs. baseline", "setting": "[3]; time 180 min", "value": "90.0% and 100.6% and 81.5%"}, {"measurement": "BP % change vs. baseline", "setting": "[3]; time 190 min", "value": "94.3% and 102.3% and 96.4%"}, {"measurement": "PAP % change vs. baseline", "setting": "[3]; time 190 min", "value": "90.9% and 101.9% and 81.9%"}, {"measurement": "BP % change vs. baseline", "setting": "[3]; time 200 min", "value": "92.5% and 103.4% and 95.5%"}, {"measurement": "PAP % change vs. baseline", "setting": "[3]; time 200 min", "value": "91.4% and 102.8% and 85.2%"}, {"measurement": "BP % change vs. baseline", "setting": "[3]; time 210 min", "value": "91.5% and 102.3% and 96.4%"}, {"measurement": "PAP % change vs. baseline", "setting": "[3]; time 210 min", "value": "92.7% and 104.2% and 88.1%"}, {"measurement": "BP % change vs. baseline", "setting": "[3]; time 220 min", "value": "91.5% and 103.4% and 96.4%"}, {"measurement": "PAP % change vs. baseline", "setting": "[3]; time 220 min", "value": "94.5% and 105.8% and 91.3%"}, {"measurement": "BP % change vs. baseline", "setting": "[3]; time 230 min", "value": "91.5% and 103.4% and 94.6%"}, {"measurement": "PAP % change vs. baseline", "setting": "[3]; time 230 min", "value": "95.1% and 106.1% and 93.1%"}, {"measurement": "BP % change vs. baseline", "setting": "[3]; time 240 min", "value": "90.6% and 102.3% and 94.6%"}, {"measurement": "PAP % change vs. baseline", "setting": "[3]; time 240 min", "value": "95.5% and 105.8% and 92.9%"}, {"measurement": "BP % change vs. baseline", "setting": "[3]; time 250 min", "value": "90.6% and 102.3% and 94.6%"}, {"measurement": "PAP % change vs. baseline", "setting": "[3]; time 250 min", "value": "96.5% and 105.8% and 94.3%"}, {"measurement": "BP % change vs. baseline", "setting": "[3]; time 260 min", "value": "89.6% and 101.1% and 93.8%"}, {"measurement": "PAP % change vs. baseline", "setting": "[3]; time 260 min", "value": "98.1% and 106.4% and 95.5%"}, {"measurement": "BP % change vs. baseline", "setting": "[3]; time 270 min", "value": "90.6% and 103.4% and 93.8%"}, {"measurement": "PAP % change vs. baseline", "setting": "[3]; time 270 min", "value": "98.6% and 107.5% and 95.9%"}, {"measurement": "BP % change vs. baseline", "setting": "[3]; time 280 min", "value": "89.6% and 100.0% and 93.8%"}, {"measurement": "PAP % change vs. baseline", "setting": "[3]; time 280 min", "value": "98.6% and 106.4% and 97.2%"}, {"measurement": "BP % change vs. baseline", "setting": "[3]; time 290 min", "value": "88.7% and 102.3% and 92.9%"}, {"measurement": "PAP % change vs. baseline", "setting": "[3]; time 290 min", "value": "99.6% and 105.8% and 98.4%"}, {"measurement": "BP % change vs. baseline", "setting": "[3]; time 300 min", "value": "89.6% and 100.0% and 92.0%"}, {"measurement": "PAP % change vs. baseline", "setting": "[3]; time 300 min", "value": "100.1% and 107.0% and 98.6%"}, {"measurement": "BP % change vs. baseline", "setting": "[3]; time 310 min", "value": "89.6% and 100.0% and 91.1%"}, {"measurement": "PAP % change vs. baseline", "setting": "[3]; time 310 min", "value": "101.7% and 107.5% and 99.6%"}, {"measurement": "BP % change vs. baseline", "setting": "[3]; time 320 min", "value": "89.6% and 105.7% and 91.1%"}, {"measurement": "PAP % change vs. baseline", "setting": "[3]; time 320 min", "value": "102.8% and 109.5% and 100.1%"}, {"measurement": "BP % change vs. baseline", "setting": "[3]; time 330 min", "value": "89.6% and 98.9% and 89.3%"}, {"measurement": "PAP % change vs. baseline", "setting": "[3]; time 330 min", "value": "102.9% and 106.1% and 99.3%"}, {"measurement": "duration of action", "setting": "[3]; nominal dose of 100 μg/kg", "value": "only a moderate duration of action"}, {"measurement": "lung selectivity", "setting": "[3]; nominal dose of 100 μg/kg", "value": "good lung selectivity"}, {"measurement": "thermal stability", "setting": "[4]", "value": "limited thermal stability"}]}, {"compound": "O=C(O)CCCCN(CCc1ccccc1OCc1ccc(CCc2ccccc2)cc1)Cc1ccc(C(=O)O)cc1", "note": "[comparative example 1, Cinaciguat]", "values": [{"measurement": "Relaxation (%) (timepoint at 70 min) Mean", "setting": "[1]; 1 nmol/l", "value": 60.4, "unit": "%"}, {"measurement": "Relaxation (%) (timepoint at 130 min) Mean", "setting": "[1]; 1 nmol/l", "value": 66.2, "unit": "%"}]}, {"compound": "O=C(O)CCCCN(CCc1ccccc1OCc1ccc(-c2nc3cc(C(F)(F)F)ccc3o2)cc1)C1CCCc2nc(C(=O)O)ccc21", "note": "(single isomer, unassigned) [comparative example 7, 5-[(4-carboxybutyl)(2-[2-({4-[5-(trifluoromethyl)-1,3-benzoxazol-2-yl]benzyl}oxy)phenyl]ethyl)amino]-5,6,7,8-tetrahydroquinoline-2-carboxylic acid]", "values": [{"measurement": "thermal stability", "setting": "[4]", "value": "limited thermal stability"}]}, {"compound": "O=C(O)c1ccc(CCN(CCc2ccccc2OCc2ccc(-c3nc4cc(OC(F)(F)F)ccc4o3)cc2)C2CCCc3nc(C(=O)O)ccc32)cc1", "note": "(single isomer, unassigned) [comparative example 9, 5-([2-(4-carboxyphenyl)ethyl]{2-[2-({4-[5-(trifluoromethoxy)-1,3-benzoxazol-2-yl]benzyl}oxy)-phenyl]ethyl}amino)-5,6,7,8-tetrahydroquinoline-2-carboxylic acid]", "values": [{"measurement": "thermal stability", "setting": "[4]", "value": "limited thermal stability"}]}, {"compound": "O=C(O)c1ccc(CCN(CCc2ccccc2OCc2ccc(-c3nc4cc(C(F)(F)F)ccc4o3)cc2)C2CCCc3nc(C(=O)O)ccc32)cc1", "note": "(single isomer, unassigned) [comparative example 6, 5-([2-(4-carboxyphenyl)ethyl]{2-[2-({4-[5-(trifluoromethyl)-1,3-benzoxazol-2-yl]benzyl}oxy)phenyl]-ethyl}amino)-5,6,7,8-tetrahydroquinoline-2-carboxylic acid]", "values": [{"measurement": "thermal stability", "setting": "[4]", "value": "limited thermal stability"}]}]}
